Earlier results as cited in patent US12268662B2, “Formulations comprising carbachol and brimonidine to enhance anti- presbyopia effects” (VISUS THERAPEUTICS, INC., priority 2021, dated 2025).

What was measured:
[1] = not given; remark: listed apart in the source
[2] = not given; remark: listed apart in the source

log P: −3.78
pKa [1]: about 15
solubility [2]: 1 gm/mL
SMILES: C[N+](C)(C)CCOC(N)=O [Carbachol]
